Biological target: T1, P2X7 receptor (UniProt Q99572)
T1 sequence (Q99572 1-595): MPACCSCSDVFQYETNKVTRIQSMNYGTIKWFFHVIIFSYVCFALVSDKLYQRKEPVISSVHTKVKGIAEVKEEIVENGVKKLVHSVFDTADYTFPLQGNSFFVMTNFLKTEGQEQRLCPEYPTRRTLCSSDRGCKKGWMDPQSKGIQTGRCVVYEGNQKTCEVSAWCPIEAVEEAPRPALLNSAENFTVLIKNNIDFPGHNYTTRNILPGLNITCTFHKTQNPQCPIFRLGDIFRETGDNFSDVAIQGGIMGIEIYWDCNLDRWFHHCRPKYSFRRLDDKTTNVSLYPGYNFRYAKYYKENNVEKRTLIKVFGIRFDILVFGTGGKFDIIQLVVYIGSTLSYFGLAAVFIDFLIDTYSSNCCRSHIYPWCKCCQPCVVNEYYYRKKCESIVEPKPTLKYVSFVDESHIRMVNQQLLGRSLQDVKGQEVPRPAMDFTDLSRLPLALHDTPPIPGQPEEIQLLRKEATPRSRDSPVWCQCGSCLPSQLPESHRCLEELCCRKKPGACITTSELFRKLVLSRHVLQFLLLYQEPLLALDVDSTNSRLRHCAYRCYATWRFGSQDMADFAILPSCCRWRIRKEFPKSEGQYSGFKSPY
Assay: pKi of Table 1 (assay not stated)
Assay type: cell-based
Experimental: Intracellular Calcium Flux (FLIPR) Assay
Stock solutions of compounds were prepared from powders as a 10 mM DMSO stock solution. These solutions were stored at RT during the two week period of these experiments to prevent freeze-thaw of the DMSO stocks. The DMSO stocks were added to the appropriate assay buffer at a concentration of 10 μM, and then diluted serially to the final concentrations that were tested. […] The aqueous solutions of compounds as well as ATP (Sigma A7699) and BzATP (Sigma B6396) were prepared fresh for each day of experiment.
1321N1 cells stably expressing the full length human P2X7 gene (1321N1-hP2X7) and HEK293 cells stably expressing the full length rat P2X7 gene (HEK293-rP2X7) were obtained from the Roche Cell Culture Facility. 1321N1-hP2X7 cells were grown in Dulbecco's Modified Eagle's Medium (DMEM) high glucose supplemented with 10% FBS and 250 μg/mL G418. HEK293-rP2X7 cells were grown in DMEM/F-12 supplemented with 10% FBS, 1 mM CaCl2, 2 mM MgCl2, 2 mM L-Glutamine and 500 μg/ml G418. Cells were split such that they never became>70% confluent.
On the day prior to the experiment, 1321N1-hP2X7 or HEK293-rP2X7 cells were released into suspension with calcium-free PBS+Versene and washed by centrifugation with calcium-free PBS to remove the Versene. Cells were resuspended in growth medium at a density of 2.5×10^5 cells/mL and seeded into black walled, clear bottom 96 well plates (50,000 cells/well) approximately 18 hr prior to intracellular calcium flux experiments.
On the day of the experiment, plates were washed with FLIPR buffer (calcium- and magnesium-free Hank's Balanced Salt Solution (HBSS) supplemented with 10 mM Hepes, 2.5 mM probenecid and 2 mM calcium chloride) using a BIO-TEK 96 channel plate washer and incubated with […] fluo-3 dye at 37° C. for one hr. The dye was then removed by plate washing and the cells were allowed to equilibrate for 20 min at room temperature with antagonist or vehicle (FLIPR buffer). Agonist (100 μM BzATP final concentration for hP2X7; 5 μM BzATP final concentration or rP2X7) was added online with the FLIPR and fluorescence measurements made at 1 sec intervals for 60 sec followed by 3 sec intervals for a further 4 min (5 min total). A final addition of 5 μM ionomycin was made and the maximal BzATP-evoked fluorescence normalized to the maximal ionomycin-evoked fluorescence.

Row | Compound | pKi
1 | Cc1ccc2ncccc2c1NC(=O)C1=CNC(=O)C[C@H]1c1ccc(F)cc1 [Compound 27, (S)-4-(4-Fluoro-phenyl)-6-oxo-1,4,5,6-tetrahydro-pyridine-3-carboxylic acid (6-methyl-quinolin-5-yl)-amide] | 7.64
2 | Cc1cc2cnn(CCO)c2cc1NC(=O)C1=CNC(=O)C[C@H]1c1ccc(F)cc1 [Compound 28, (S)-4-(4-Fluoro-phenyl)-6-oxo-1,4,5,6-tetrahydro-pyridine-3-carboxylic acid [1-(2-hydroxy-ethyl)-5-methyl-1H-indazol-6-yl]-amide] | 7.645
3 | Cc1cc2cc(C)n(CCO)c2cc1NC(=O)C1=CNC(=O)C[C@H]1c1ccc(F)cc1 [Compound 29, (S)-4-(4-Fluoro-phenyl)-6-oxo-1,4,5,6-tetrahydro-pyridine-3-carboxylic acid [1-(2-hydroxy-ethyl)-2,5-dimethyl-1H-indol-6-yl]-amide] | 6.285
4 | Cc1cc2c(C)cn(CCO)c2cc1NC(=O)C1=CNC(=O)C[C@H]1c1ccc(F)cc1 [Compound 30, (S)-4-(4-Fluoro-phenyl)-6-oxo-1,4,5,6-tetrahydro-pyridine-3-carboxylic acid [1-(2-hydroxy-ethyl)-3,5-dimethyl-1H-indol-6-yl]-amide] | 6.89
5 | CCc1cc2c(cc1NC(=O)C1=CNC(=O)C[C@H]1c1ccc(F)cc1)N(C)C(=O)CC2 [Compound 31, (S)-4-(4-Fluoro-phenyl)-6-oxo-1,4,5,6-tetrahydro-pyridine-3-carboxylic acid (6-ethyl-1-methyl-2-oxo-1,2,3,4-tetrahydro-quinolin-7-yl)-amide] | 6.805
6 | Cc1cc2c(cc1NC(=O)C1=CNC(=O)C[C@H]1c1ccc(F)cc1)N(CCO)C(=O)CC2 [Compound 33, (S)-4-(4-Fluoro-phenyl)-6-oxo-1,4,5,6-tetrahydro-pyridine-3-carboxylic acid [1-(2-hydroxy-ethyl)-6-methyl-2-oxo-1,2,3,4-tetrahydro-quinolin-7-yl]-amide] | 6.285
7 | Cc1cc2c(cc1NC(=O)C1=CNC(=O)C[C@H]1c1ccc(F)cc1)NC(=O)CO2 [Compound 36, (S)-4-(4-Fluoro-phenyl)-6-oxo-1,4,5,6-tetrahydro-pyridine-3-carboxylic acid (7-methyl-3-oxo-3,4-dihydro-2H-benzo[1,4]oxazin-6-yl)-amide] | 5.56
8 | O=C1C[C@@H](c2ccc(F)cc2)C(C(=O)Nc2cc3c(cc2Br)OCC(=O)N3CCO)=CN1 [Compound 38, (S)-4-(4-Fluoro-phenyl)-6-oxo-1,4,5,6-tetrahydro-pyridine-3-carboxylic acid [7-bromo-4-(2-hydroxy-ethyl)-3-oxo-3,4-dihydro-2H-benzo[1,4]oxazin-6-yl]-amide] | 5.25
9 | Cc1cc2c(cc1NC(=O)C1=CNC(=O)C[C@H]1c1ccc(F)cc1)N(CCO)C(=O)CO2 [Compound 39, (S)-4-(4-Fluoro-phenyl)-6-oxo-1,4,5,6-tetrahydro-pyridine-3-carboxylic acid [4-(2-hydroxy-ethyl)-7-methyl-3-oxo-3,4-dihydro-2H-benzo[1,4]oxazin-6-yl]-amide] | 5.48
10 | CCc1cc2c(cc1NC(=O)C1=CNC(=O)C[C@H]1c1ccc(F)cc1)N(CCO)C(=O)CO2 [Compound 40, (S)-4-(4-Fluoro-phenyl)-6-oxo-1,4,5,6-tetrahydro-pyridine-3-carboxylic acid [7-ethyl-4-(2-hydroxy-ethyl)-3-oxo-3,4-dihydro-2H-benzo[1,4]oxazin-6-yl]-amide] | 6.485
11 | CCc1cc2cnn(C)c2cc1NC(=O)C1=CNC(=O)C[C@H]1c1ccc(F)cc1 [Compound 42, (S)-4-(4-Fluoro-phenyl)-6-oxo-1,4,5,6-tetrahydro-pyridine-3-carboxylic acid (5-ethyl-1-methyl-1H-indazol-6-yl)-amide] | 7.74
12 | Cc1cc2c(cc1NC(=O)C1=CNC(=O)C[C@H]1c1ccc(F)cc1)CCC(=O)N2C [Compound 43, (S)-4-(4-Fluoro-phenyl)-6-oxo-1,4,5,6-tetrahydro-pyridine-3-carboxylic acid (1,7-dimethyl-2-oxo-1,2,3,4-tetrahydro-quinolin-6-yl)-amide] | 7.505
13 | CCc1cc2cnn(C)c2cc1NC(=O)C1=CNC(=O)C[C@H]1c1cccc(F)c1 [Compound 44, (S)-4-(3-Fluoro-phenyl)-6-oxo-1,4,5,6-tetrahydro-pyridine-3-carboxylic acid (5-ethyl-1-methyl-1H-indazol-6-yl)-amide] | 7.825
14 | Cc1cc2c(NC(=O)C3=CNC(=O)C[C@H]3c3ccc(F)cc3)cccc2nn1 [Compound 48, (S)-4-(4-Fluoro-phenyl)-6-oxo-1,4,5,6-tetrahydro-pyridine-3-carboxylic acid (3-methyl-cinnolin-5-yl)-amide] | 5.425
15 | Cc1ccc2c(NC(=O)C3=CNC(=O)C[C@H]3c3ccc(F)cc3)c(C)ccc2n1 [Compound 49, (S)-4-(4-Fluoro-phenyl)-6-oxo-1,4,5,6-tetrahydro-pyridine-3-carboxylic acid (2,6-dimethyl-quinolin-5-yl)-amide] | 7.8567

Now from value to molecule:

Row | pKi | Compound
16 | 5.14 | CC1=C(C(=O)Nc2ccc3[nH]ncc3c2)C(c2ccc(F)cc2)CC(=O)N1 (centres unmarked) [Compound 32, 4-(4-Fluoro-phenyl)-2-methyl-6-oxo-1,4,5,6-tetrahydro-pyridine-3-carboxylic acid (1H-indazol-5-yl)-amide]
17 | 6.785 | O=C1C[C@@H](c2ccc(F)cc2)C(C(=O)Nc2cc3c(cc2Br)N(CCO)C(=O)CC3)=CN1 [Compound 34, (S)-4-(4-Fluoro-phenyl)-6-oxo-1,4,5,6-tetrahydro-pyridine-3-carboxylic acid [7-bromo-1-(2-hydroxy-ethyl)-2-oxo-1,2,3,4-tetrahydro-quinolin-6-yl]-amide]
18 | 7.18 | CCc1c(NC(=O)C2=CNC(=O)C[C@H]2c2ccc(F)cc2)ccc2nc(C)ccc12 [Compound 35, (S)-4-(4-Fluoro-phenyl)-6-oxo-1,4,5,6-tetrahydro-pyridine-3-carboxylic acid (5-ethyl-2-methyl-quinolin-6-yl)-amide]
19 | 5.145 | O=C1C[C@@H](c2ccc(F)cc2)C(C(=O)Nc2cc3c(cc2Br)CCC(=O)N3)=CN1 [Compound 41, (S)-4-(4-Fluoro-phenyl)-6-oxo-1,4,5,6-tetrahydro-pyridine-3-carboxylic acid (6-bromo-2-oxo-1,2,3,4-tetrahydro-quinolin-7-yl)-amide]
20 | 7.7 | CCc1cc2cnn(CCO)c2cc1NC(=O)C1=CNC(=O)C[C@H]1c1cccc(F)c1 [Compound 45, (S)-4-(3-Fluoro-phenyl)-6-oxo-1,4,5,6-tetrahydro-pyridine-3-carboxylic acid [5-ethyl-1-(2-hydroxy-ethyl)-1H-indazol-6-yl]-amide]
21 | 7.635 | CCc1c(NC(=O)C2=CNC(=O)C[C@H]2c2cccc(F)c2)ccc2nc(C)ccc12 [Compound 46, (S)-4-(3-Fluoro-phenyl)-6-oxo-1,4,5,6-tetrahydro-pyridine-3-carboxylic acid (5-ethyl-2-methyl-quinolin-6-yl)-amide]
22 | 5.29 | O=C1C[C@@H](c2ccc(F)cc2)C(C(=O)Nc2cccc3ccncc23)=CN1 [Compound 47, (S)-4-(4-Fluoro-phenyl)-6-oxo-1,4,5,6-tetrahydro-pyridine-3-carboxylic acid isoquinolin-8-ylamide]
23 | 7.04 | CN1C=C(C(=O)Nc2cccc3c(=O)n(CCO)ccc23)[C@H](c2ccc(F)cc2)CC1=O [Compound 50, (S)-4-(4-Fluoro-phenyl)-1-methyl-6-oxo-1,4,5,6-tetrahydro-pyridine-3-carboxylic acid [2-(2-hydroxy-ethyl)-1-oxo-1,2-dihydro-isoquinolin-5-yl]-amide]

Source: patent US8372865B2, “Dihydropyridone amides as P2X7 modulators” (Roche Palo Alto LLC, priority 2008, dated 2013)
